Consider two molecules from patent US10086001B2, “Composition for the treatment of cystic fibrosis” (SciPharm SàRL, priority 2009, dated 2018).

One test has as its system IB3-1 cells. Description: Accumulation of [3H]cAMP in IB3-1 cells. The class given is cell-based, human. Particulars: for accumulation of cAMP: bronchoepithelial IB3-1 cells. How it is done: IB3-1 cells were plated on 6 well-plates (0.2*10^6 cells/well) in complete growth medium (LHC-8+5% FCS). The following day, the adenine nucleotide pool was metabolically labelled by incubation with [3H]adenine (1 μCi/well) in Dulbecco's Modified Eagle Medium (DMEM) containing adenosine deaminase (1 unit/ml) for 4 h. Cyclc AMP formation was stimulated by 20 μM forskolin or the PGI2-analogue treprostinil (Remodulin®). The assay was performed in triplicates. The formation of [^3H]cAMP was determined by sequential chromatography on Dowex 50WX-4 and neutral alumina columns followed by liquid scintillation counting of the eluate.

Test [1] concerns human GFP-tagged wild type CFTR. Description: Whole cell patch clamp, activation of Cl-current in IB3-1 cells transiently expressing GFP-tagged wild type CFTR. The class given is cell-based. How it is done:
The whole cell patch clamp technique was used for current recordings performed at 22±1.5° C. using an Axoclamp 200B patch clamp amplifier (Axon Instruments). Pipettes had resistances between 1 and 2 MΩ when filled with the recording pipette solution (composition: 110 mM CsCl, 5 mM EGTA, 2 mM MgCl2, 1 mM K2.ATP, 10 mM Hepes, pH adjusted to 7.2 with CsOH). Voltage-clamp protocols and data acquisition were performed with pclamp 6.0 software (Axon Instruments). Data were low-pass filtered at 2 kHz (−3 dB) and digitized at 10-20 kHz. Cells were continuously superfused with external solution (composition: 145 mM NaCl, 4.5 mM KCl, 2 mM CaCl2, 1 mM MgCl2, 5 mM glucose, 10 mM Hepes, pH adjusted to 7.4 with NaOH). When indicated, the external solution contained Treprostinil (10 μM) or forskolin (5 μM), switching between solutions was achieved by electronically controlled pressure valves.
I3B-1 cells were grown on dishes (Nunc, 3.5 cm diameter) covered with fibronectin (10 μg/mL) rat collagen 1 (30 μg/mL) and BSA 10 μg/mL) in LHC-8 medium (Gibco) containing 5% fetal calf serum (FCS). Cells were transiently transfected with a plasmid driving the expression of human GFP-tagged wild type CFTR by using Lipofectamine Plus® (Invitrogen) according to the instructions of the manufacturer.
Representative current amplitudes recorded in the whole cell patch clamp configuration at +60 mV. A transiently transfected I3B-1 cell expressing GFP-tagged wild type CFTR was selected under fluorescent light and clamped to a holding potential at −40 mV. Depolarization was induced by a voltage step to +60 mV for 50 ms and the current amplitude was recorded. Wash-in of Treprostinil (10 μM final concentration, TP) was initiated at the time point 50 s and terminated at 125 s. Forskolin was washed in at 275 s and was removed at 375 s.

Take `O=C1CN2Cc3c(ccc(Cl)c3Cl)N=C2N1` [Anagrelide]: in the test on IB3-1 cells, the “accumulation of cAMP” value was “did not induce any accumulation cAMP”.

For the molecule `CCCCC[C@H](O)CC[C@@H]1[C@H]2Cc3cccc(OCC(=O)[O-])c3C[C@H]2C[C@H]1O.[Na+]` [Treprostinil, (1R,2R,3aS,9aS)-[[2,3,3a,4,9,9a-hexahydro-2-hydroxy-1-[(3S)-3-hydroxyoctyl]-1H-benz[f]inden-5-yl]oxy]acetic acid monosodium salt], in test [1] (10 μM Treprostinil, IB3-1 cell expressing CFTR-wt, FIG. 2), the “activation of the current induced by a depolarization from −40 mV holding potential to +60 mV” value is “robust activation of the current”. For the same molecule, in test [1] (10 μM Treprostinil, whole cell patch clamp at +60 mV), the “time for current to decay to basal after washout” value is roughly 100 s. For the same molecule, in test [1] (Treprostinil 10 μM or forskolin 5 μM, whole cell patch clamp), the “delay of response (maximum effect after wash-in, hysteresis in turn-off)” value is on record as “only observed several s after wash-in”. Besides, the EC50 in the test with IB3-1 cells (Homo sapiens, IB3-1 cells, [3H]adenine labelling, FIG. 1, read-out: Half-maximum stimulation of cAMP accumulation) is 300 to 1000 nM. In addition, the “accumulation of cAMP” value in the test on IB3-1 cells was “concentration-dependent accumulation of cAMP”.
